The source of these data is patent publication US9428499B2, “Heterocyclyl compounds as MEK inhibitors” (LUPIN LIMITED, priority 2012, dated 2016).

Each structure is given as a SMILES string.

This test deals with ERK phosphorylation. Description: Analysis of ERK phosphorylation (Alphascreen SureFire Phospho-ERK 1/2). It is filed as cell-based, human and mouse. Particulars: cells treated for 1 h; human melanoma cells, human and mouse colon cancer cells; read-out: Minimum concentration (nM) required for ≧80% inhibition of pERK. Here is the method:
This assay was carried out with human melanoma cells, human and mouse colon cancer cells. Cells were treated for 1 h with various concentrations of test compounds. ERK phosphorylation analysis was performed using the Alphascreen SureFire Phospho-ERK 1/2 Kit (Perkin Elmer), by following the manufacturer's instructions. % inhibition of ERK phosphorylation was determined as: 100−{(RFU test−RFU lysis buffer control)/(RFU vehicle treated control−RFU lysis buffer control)}×100. Percentage inhibition at concentrations of 0.01 nM, 0.03 nM, 0.1-0.9 nM, 1 nM to 3 nM, 4-100 nM, and >100 nM, for the stated examples is setworth here. The percentage inhibition at the above depicted concentrations for the compounds stated are given in the following groups.

On to `Cc1c(=O)n(C)c(Nc2ccc(I)cc2F)c2c(=O)n(C)c(=O)n(-c3cccc(C(=O)NC4COC4)c3)c12` [Compound 49, 3-(5-((2-fluoro-4-iodophenyl)amino)-3,6,8-trimethyl-2,4,7-trioxo-3,4,6,7-tetra hydropyrido[4,3-d]pyrimidin-1(2H)-yl)-N-(oxetan-3-yl)benzamide], for which the IC80 amounted to 0.01 nM.
As for `Cc1c(=O)n(C)c(Nc2ccc(I)cc2F)c2c(=O)n(C)c(=O)n(-c3cccc(CC(=O)NC4COC4)c3)c12` [Compound 50, 2-(3-(5-((2-fluoro-4-iodophenyl)amino)-3,6,8-trimethyl-2,4,7-trioxo-3,4,6,7-tetrahydropyrido[4,3-d]pyrimidin-1(2H)-yl)phenyl)-N-(oxetan-3-yl)acetamide], the IC80 lay in the range of 4 to 100 nM.
`Cc1c(=O)n(C)c(Nc2ccc(I)cc2F)c2c(=O)n(C)c(=O)n(-c3cccc(C(=O)NC4CCOC4)c3)c12` (stereo not drawn) [Compound 51, 3-(5-((2-fluoro-4-iodophenyl)amino)-3,6,8-trimethyl-2,4,7-trioxo-3,4,6,7-tetrahydropyrido[4,3-d]pyrimidin-1(2H)-yl)-N-(tetrahydrofuran-3-yl)benzamide]: the IC80 stood at 0.01 nM.
Turning to `Cc1c(=O)n(C)c(Nc2ccc(I)cc2F)c2c(=O)n(C)c(=O)n(-c3cccc(C(=O)NC4CCOCC4)c3)c12` [Compound 52, 3-(5-((2-fluoro-4-iodophenyl)amino)-3,6,8-trimethyl-2,4,7-trioxo-3,4,6,7-tetrahydropyrido[4,3-d]pyrimidin-1(2H)-yl)-N-(tetrahydro-2H-pyran-4-yl)benzamide], the IC80 fell in the range of 4 to 100 nM.
Take `Cc1c(=O)n(C)c(Nc2ccc(I)cc2F)c2c(=O)n(C)c(=O)n(-c3cccc(C(=O)NC4(CO)CC4)c3)c12` [Compound 53, 3-(5-((2-fluoro-4-iodophenyl)amino)-3,6,8-trimethyl-2,4,7-trioxo-3,4,6,7-tetrahydropyrido[4,3-d]pyrimidin-1(2H)-yl)-N-(1-(hydroxymethyl)cyclopropyl)benzamide]: the IC80 was in the range of 4 to 100 nM.
For `Cc1c(=O)n(C)c(Nc2ccc(I)cc2F)c2c(=O)n(C)c(=O)n(-c3cccc(C(=O)NC4CC4)c3)c12` [Compound 54, N-cyclopropyl-3-(5-((2-fluoro-4-iodophenyl)amino)-3,6,8-trimethyl-2,4,7-trioxo-3,4,6,7-tetrahydropyrido[4,3-d]pyrimidin-1(2H)-yl)benzamide], the IC80 lay within 1 to 3 nM.
As for `Cc1c(=O)n(C)c(Nc2ccc(I)cc2F)c2c(=O)n(CCO)c(=O)n(-c3cccc(C(=O)NC4CC4)c3)c12` [Compound 55, N-cyclopropyl-3-(5-((2-fluoro-4-iodophenyl)amino)-3-(2-hydroxyethyl)-6,8-dimethyl-2,4,7-trioxo-3,4,6,7-tetrahydropyrido[4,3-d]pyrimidin-1(2H)-yl)benzamide], the IC80 was 4 to 100 nM.
To `Cc1c(=O)n(C)c(Nc2ccc(I)cc2F)c2c(=O)n(C)c(=O)n(-c3cccc(C(=O)N4CCC4)c3)c12` [Compound 56, 1-(3-(azetidine-1-carbonyl)phenyl)-5-((2-fluoro-4-iodophenyl)amino)-3,6,8-trimethylpyrido[4,3-d]pyrimidine-2,4,7(1H,3H,6H)-trione] belongs 1 to 3 nM; to `Cc1c(=O)n(C)c(Nc2ccc(I)cc2F)c2c(=O)n(C)c(=O)n(-c3cccc(CC(=O)NC4CC4)c3)c12` [Compound 58, N-cyclopropyl-2-(3-(5-((2-fluoro-4-iodophenyl)amino)-3,6,8-trimethyl-2,4,7-trioxo-3,4,6,7-tetrahydropyrido[4,3-d]pyrimidin-1(2H)-yl)phenyl)acetamide], 1 to 3 nM; to `CCn1c(=O)c2c(Nc3ccc(I)cc3F)n(C)c(=O)c(C)c2n(-c2cccc(CC(=O)NC3CC3)c2)c1=O` [Compound 59, N-cyclopropyl-2-(3-(3-ethyl-5-((2-fluoro-4-iodophenyl)amino)-6,8-dimethyl-2,4,7-trioxo-3,4,6,7-tetrahydropyrido[4,3-d]pyrimidin-1(2H)-yl)phenyl)acetamide], 1 to 3 nM.
As for `CNC(=O)COc1cccc(-n2c(=O)n(C)c(=O)c3c(Nc4ccc(I)cc4F)n(C)c(=O)c(C)c32)c1` [Compound 60, 2-(3-(5-((2-fluoro-4-iodophenyl)amino)-3,6,8-trimethyl-2,4,7-trioxo-3,4,6,7-tetrahydropyrido[4,3-d]pyrimidin-1(2H)-yl)phenoxy)-N-methylacetamide], the figure is 0.1 to 0.9 nM; as for `CCn1c(=O)c2c(Nc3ccc(I)cc3F)n(C)c(=O)c(C)c2n(-c2cccc(CCC(N)=O)c2)c1=O` [Compound 61, 3-(3-(3-ethyl-5-((2-fluoro-4-iodophenyl)amino)-6,8-dimethyl-2,4,7-trioxo-3,4,6,7-tetrahydropyrido[4,3-d]pyrimidin-1(2H)-yl)phenyl)propanamide], 1 to 3 nM; as for `CCn1c(=O)c2c(Nc3ccc(I)cc3F)n(C)c(=O)c(C)c2n(-c2cccc(C(=O)NC3CC3)c2)c1=O` [Compound 62, N-cyclopropyl-3-(3-ethyl-5-((2-fluoro-4-iodophenyl)amino)-6,8-dimethyl-2,4,7-trioxo-3,4,6,7-tetrahydropyrido[4,3-d]pyrimidin-1(2H)-yl)benzamide], 4 to 100 nM.
For the molecule `Cc1c(=O)n(C)c(Nc2ccc(I)cc2F)c2c(=O)n(C)c(=O)n(-c3cccc(C(=O)N4CCOCC4)c3)c12` [Compound 63, 5-((2-fluoro-4-iodophenyl)amino)-3,6,8-trimethyl-1-(3-(morpholine-4-carbonyl)phenyl)pyrido[4,3-d]pyrimidine-2,4,7(1H,3H,6H)-trione], the IC80 is 1 to 3 nM.
In the case of `Cc1c(=O)n(C)c(Nc2ccc(I)cc2F)c2c(=O)n(C)c(=O)n(-c3cccc(C(=O)N4CCS(=O)(=O)CC4)c3)c12` [Compound 65, 1-(3-(1,1-dioxidothiomorpholine-4-carbonyl)phenyl)-5-((2-fluoro-4-iodophenyl)amino)-3,6,8-trimethylpyrido[4,3-d]pyrimidine-2,4,7(1H,3H,6H)-trione], the IC80 is 0.1 to 0.9 nM.
As for `CCn1c(=O)c2c(Nc3ccc(I)cc3F)n(C)c(=O)c(C)c2n(-c2cccc(C(=O)N3CCS(=O)(=O)CC3)c2)c1=O` [Compound 66, 1-(3-(1,1-dioxidothiomorpholine-4-carbonyl)phenyl)-3-ethyl-5-((2-fluoro-4-iodophenyl)amino)-6,8-dimethylpyrido[4,3-d]pyrimidine-2,4,7(1H,3H,6H)-trione], the IC80 was determined as 0.01 nM.
In the case of `CCn1c(=O)c2c(Nc3ccc(I)cc3F)n(C)c(=O)c(C)c2n(-c2cccc(CC(=O)N(C)C)c2)c1=O` [Compound 67, 2-(3-(3-ethyl-5-((2-fluoro-4-iodophenyl)amino)-6,8-dimethyl-2,4,7-trioxo-3,4,6,7-tetrahydropyrido[4,3-d]pyrimidin-1(2H)-yl)phenyl)-N,N-dimethylacetamide], the IC80 is 0.1 to 0.9 nM.
For `Cc1c(=O)n(C)c(Nc2ccc(I)cc2F)c2c(=O)n(C)c(=O)n(-c3cccc(CCC(N)=O)c3)c12` [Compound 68, 3-(3-(5-((2-fluoro-4-iodophenyl)amino)-3,6,8-trimethyl-2,4,7-trioxo-3,4,6,7-tetrahydropyrido[4,3-d]pyrimidin-1(2H)-yl)phenyl)propanamide], the IC80 was 1 to 3 nM.
On to `Cc1c(=O)n(C)c(Nc2ccc(I)cc2F)c2c(=O)n(C(C)C)c(=O)n(-c3cccc(C(=O)NC4CC4)c3)c12` [Compound 69, N-cyclopropyl-3-(5-((2-fluoro-4-iodophenyl)amino)-3-isopropyl-6,8-dimethyl-2,4,7-trioxo-3,4,6,7-tetrahydropyrido[4,3-d]pyrimidin-1(2H)-yl)benzamide], for which the IC80 is over 100 nM.
For `Cc1c(=O)n(C)c(Nc2ccc(I)cc2F)c2c(=O)n(C3COC3)c(=O)n(-c3cccc(OCC(N)=O)c3)c12` [Compound 71, 2-(3-(5-((2-fluoro-4-iodophenyl)amino)-6,8-dimethyl-3-(oxetan-3-yl)-2,4,7-trioxo-3,4,6,7-tetrahydropyrido[4,3-d]pyrimidin-1(2H)-yl)phenoxy)acetamide], the IC80 was in the range of 4 to 100 nM.
For the molecule `Cc1c(=O)n(C)c(Nc2ccc(I)cc2F)c2c(=O)n(C(F)F)c(=O)n(-c3cccc(C(=O)NC4CC4)c3)c12` [Compound 72, N-cyclopropyl-3-(3-(difluoromethyl)-5-((2-fluoro-4-iodophenyl)amino)-6,8-dimethyl-2,4,7-trioxo-3,4,6,7-tetrahydropyrido[4,3-d]pyrimidin-1(2H)-yl)benzamide], the IC80 fell in the range of 4 to 100 nM.
As to `Cc1c(=O)n(C)c(Nc2ccc(I)cc2F)c2c(=O)n(CC(O)CO)c(=O)n(-c3cccc(C(=O)NC4CC4)c3)c12` (stereo not drawn) [Compound 73, N-cyclopropyl-3-(3-(2,3-dihydroxypropyl)-5-((2-fluoro-4-iodophenyl)amino)-6,8-dimethyl-2,4,7-trioxo-3,4,6,7-tetrahydropyrido[4,3-d]pyrimidin-1 (2H)-yl)benzamide], the IC80 lay in the range of 4 to 100 nM.
As to `Cc1c(=O)n(C)c(Nc2ccc(I)cc2F)c2c(=O)n(CC(=O)O)c(=O)n(-c3cccc(C(=O)NC4CC4)c3)c12` [Compound 74, 2-(1-(3-(cyclopropylcarbamoyl)phenyl)-5-((2-fluoro-4-iodophenyl)amino)-6,8-dimethyl-2,4,7-trioxo-1,2,6,7-tetrahydropyrido[4,3-d]pyrimidin-3(4H)-yl)acetic acid], the IC80 is over 100 nM.
In the case of `Cc1c(=O)n(C)c(Nc2ccc(I)cc2F)c2c(=O)n(C)c(=O)n(-c3cccc([C@@H](O)C(N)=O)c3)c12` [Compound 75, (R)-2-(3-(5-((2-fluoro-4-iodophenyl)amino)-3,6,8-trimethyl-2,4,7-trioxo-3,4,6,7-tetrahydropyrido[4,3-d]pyrimidin-1(2H)-yl)phenyl)-2-hydroxyacetamide], the IC80 lay in the range of 1 to 3 nM.
